Assay results from ChEMBL document CHEMBL1201862, “PubChem BioAssay data set” (2004).
Active and inactive are the calls of the source.

Assays:
[1] = molecular target: Peroxisome proliferator-activated receptor gamma/Nuclear receptor coactivator 3 (Homo sapiens, UniProt P37231); assay type: functional;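 note: agonist potency for raising coactivator recruitment to the receptor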
[2] = molecular target: Peroxisome proliferator-activated receptor gamma/Nuclear receptor coactivator 1 (Homo sapiens, UniProt P37231); assay type: functional;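 note: agonist potency as compounds enhance coactivator SRC-1 recruitment to PPARgamma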
[3] = molecular target: T1, Endoribonuclease toxin MazF (Escherichia coli K-12, UniProt P0AE70); test: MazF toxin RNase activators, dose response, biochemical, fluorescence, single-stranded RNA substrate, uHTS hits (AID 588481); assay type: functional
T1 sequence (P0AE70 whole entry): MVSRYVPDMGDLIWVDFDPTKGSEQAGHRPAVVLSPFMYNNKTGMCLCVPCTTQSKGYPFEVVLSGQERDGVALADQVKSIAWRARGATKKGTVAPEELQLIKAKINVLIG

[4] = molecular target: T1, Endoribonuclease toxin MazF; test: fluorescent RNA oligo signal without MazF, dose response, counter-screen for MazEF activator project, biochemical, fluorescence, single-stranded RNase substrate (AID 588502); assay type: functional
[5] = system: Streptococcus sp. 'group A'; test: growth inhibition of control SK(-) GAS strain, dose response, counter-screen for streptokinase expression inhibitor project, luminescence, kanamycin, BacTiterGlo, confirmation (AID 1900); assay type: functional, organism-based
Streptococcus = test: Group A Streptococcus viability loss, dose response, counter-screen for streptokinase expression inhibitor project, luminescence, BacTiterGlo (AID 1915); assay type: functional, organism-based;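 note: potency for reduction of bacterial viability or growth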
[6] = molecular target: Peroxisome proliferator-activated receptor gamma/Nuclear receptor coactivator 2 (Homo sapiens, UniProt P37231); assay type: functional;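 note: agonist potency for raising coactivator recruitment to the receptor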
[7] = molecular target: Voltage-gated inwardly rectifying potassium channel KCNH2 (Homo sapiens, UniProt Q12809); details: Potency;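 note: confirmatory quantitative high-throughput screen measuring inhibition of hERG channel activity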
Sequence of Voltage-gated inwardly rectifying potassium channel KCNH2 (Q12809 whole entry): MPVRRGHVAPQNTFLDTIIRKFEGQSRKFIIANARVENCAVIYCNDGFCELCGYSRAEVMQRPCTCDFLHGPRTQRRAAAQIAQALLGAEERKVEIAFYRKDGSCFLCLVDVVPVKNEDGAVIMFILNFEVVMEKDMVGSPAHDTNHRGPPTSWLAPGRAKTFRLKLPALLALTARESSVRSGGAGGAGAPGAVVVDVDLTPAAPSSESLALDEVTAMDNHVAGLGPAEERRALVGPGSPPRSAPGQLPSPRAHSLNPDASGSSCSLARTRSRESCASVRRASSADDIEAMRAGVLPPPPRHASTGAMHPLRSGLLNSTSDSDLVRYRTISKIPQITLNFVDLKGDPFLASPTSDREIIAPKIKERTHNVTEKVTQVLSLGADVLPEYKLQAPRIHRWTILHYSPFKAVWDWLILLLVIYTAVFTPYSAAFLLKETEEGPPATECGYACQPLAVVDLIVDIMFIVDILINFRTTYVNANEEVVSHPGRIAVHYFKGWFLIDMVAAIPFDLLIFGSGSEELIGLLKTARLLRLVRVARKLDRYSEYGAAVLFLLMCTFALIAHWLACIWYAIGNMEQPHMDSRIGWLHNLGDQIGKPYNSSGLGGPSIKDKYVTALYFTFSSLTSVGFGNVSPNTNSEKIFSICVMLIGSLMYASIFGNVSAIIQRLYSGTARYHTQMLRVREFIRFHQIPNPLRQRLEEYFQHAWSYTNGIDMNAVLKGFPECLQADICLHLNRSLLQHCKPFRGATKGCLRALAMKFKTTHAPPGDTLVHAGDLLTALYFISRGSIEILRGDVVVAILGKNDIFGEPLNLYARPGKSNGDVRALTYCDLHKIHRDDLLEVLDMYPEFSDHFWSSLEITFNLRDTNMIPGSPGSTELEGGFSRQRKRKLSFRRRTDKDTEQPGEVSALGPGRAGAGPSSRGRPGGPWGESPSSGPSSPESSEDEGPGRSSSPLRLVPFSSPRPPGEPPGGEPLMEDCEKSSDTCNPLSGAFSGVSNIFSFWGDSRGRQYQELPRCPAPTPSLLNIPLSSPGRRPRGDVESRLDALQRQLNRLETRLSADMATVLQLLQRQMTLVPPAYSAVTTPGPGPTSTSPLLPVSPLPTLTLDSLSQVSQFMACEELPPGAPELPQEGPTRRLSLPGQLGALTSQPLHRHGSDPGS

Cytochrome P450 2C9 = Cytochrome P450 2C9 (Homo sapiens, UniProt P11712)
Sequence of Cytochrome P450 2C9 (P11712 whole entry): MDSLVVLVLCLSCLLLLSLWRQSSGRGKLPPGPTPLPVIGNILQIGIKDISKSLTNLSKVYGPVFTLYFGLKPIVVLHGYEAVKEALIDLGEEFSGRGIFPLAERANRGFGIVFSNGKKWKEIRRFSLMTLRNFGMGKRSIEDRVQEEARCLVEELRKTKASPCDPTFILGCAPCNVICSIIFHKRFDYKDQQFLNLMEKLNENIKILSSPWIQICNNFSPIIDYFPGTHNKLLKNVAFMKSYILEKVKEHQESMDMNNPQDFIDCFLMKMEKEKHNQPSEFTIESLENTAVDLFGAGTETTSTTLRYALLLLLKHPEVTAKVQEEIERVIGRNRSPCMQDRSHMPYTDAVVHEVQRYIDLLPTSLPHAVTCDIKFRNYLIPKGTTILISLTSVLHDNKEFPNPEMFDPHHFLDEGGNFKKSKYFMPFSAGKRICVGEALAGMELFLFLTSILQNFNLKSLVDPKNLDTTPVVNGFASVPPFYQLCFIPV

Beta-galactosidase [8] = molecular target: T2, Beta-galactosidase (Escherichia coli, UniProt Q8VNN2); assay type: functional
T2 sequence (Q8VNN2 whole entry): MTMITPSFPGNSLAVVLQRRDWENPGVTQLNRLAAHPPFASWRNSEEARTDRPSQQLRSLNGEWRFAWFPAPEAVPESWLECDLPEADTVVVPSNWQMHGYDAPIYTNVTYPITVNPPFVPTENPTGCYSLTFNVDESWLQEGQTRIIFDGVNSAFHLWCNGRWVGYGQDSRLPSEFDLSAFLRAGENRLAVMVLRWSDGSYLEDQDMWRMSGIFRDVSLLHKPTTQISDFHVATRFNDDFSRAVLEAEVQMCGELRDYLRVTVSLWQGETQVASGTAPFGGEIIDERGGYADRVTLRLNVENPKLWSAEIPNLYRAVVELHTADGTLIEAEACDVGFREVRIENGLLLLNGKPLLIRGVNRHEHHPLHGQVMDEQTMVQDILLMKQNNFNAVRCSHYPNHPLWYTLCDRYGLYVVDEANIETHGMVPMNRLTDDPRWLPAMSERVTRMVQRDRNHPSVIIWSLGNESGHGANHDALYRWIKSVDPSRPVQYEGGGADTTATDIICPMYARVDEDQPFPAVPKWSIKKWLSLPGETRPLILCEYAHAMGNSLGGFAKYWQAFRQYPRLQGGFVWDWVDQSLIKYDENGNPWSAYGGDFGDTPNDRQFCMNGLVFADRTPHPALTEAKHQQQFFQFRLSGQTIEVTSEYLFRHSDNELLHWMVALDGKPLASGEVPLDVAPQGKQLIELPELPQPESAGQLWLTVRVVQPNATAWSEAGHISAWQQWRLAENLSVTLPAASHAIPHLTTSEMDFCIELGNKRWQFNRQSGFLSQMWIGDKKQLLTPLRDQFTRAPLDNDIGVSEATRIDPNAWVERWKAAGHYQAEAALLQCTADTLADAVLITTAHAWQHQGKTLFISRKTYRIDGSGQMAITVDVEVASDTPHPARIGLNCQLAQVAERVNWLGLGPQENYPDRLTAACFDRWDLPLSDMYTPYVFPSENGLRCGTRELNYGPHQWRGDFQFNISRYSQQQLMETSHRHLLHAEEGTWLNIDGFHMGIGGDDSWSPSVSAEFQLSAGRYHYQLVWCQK

[9] = HepG2 cell cytotoxicity, dose response, cytotoxicity control for non-replicating M. tuberculosis project (AID 489018); assay type: functional; details: Mycobacterium tuberculosis
[10] = inhibitors of intracellular T. cruzi replication, confirmation, NIH3T3 host cells, beta-gal luminescence (AID 2044); assay type: functional, cell-based;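 note: intracellular parasites grown in NIH/3T3 mouse fibroblasts as host cells; luminescent beta-galactosidase reporter signal from transgenic T. cruzi replicating inside host cells; inhibitors lower the luminescence signal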
[11] = Vero E6 cell cytotoxicity, dose response, cytotoxicity control for non-replicating M. tuberculosis project, secondary assay (AID 492998); assay type: functional, VeroE6; details: Vero C1008
cells = assay type: functional
[12] = molecular target: Type-1 angiotensin II receptor (Homo sapiens, UniProt P30556); test: AT1 receptor antagonists, dose response, selectivity assay for APJ receptor antagonist project, cell-based, uHTS hits (AID 463214); assay type: functional;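 note: antagonist potency against angiotensin II stimulated AT1 response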
Sequence of Type-1 angiotensin II receptor (P30556 whole entry): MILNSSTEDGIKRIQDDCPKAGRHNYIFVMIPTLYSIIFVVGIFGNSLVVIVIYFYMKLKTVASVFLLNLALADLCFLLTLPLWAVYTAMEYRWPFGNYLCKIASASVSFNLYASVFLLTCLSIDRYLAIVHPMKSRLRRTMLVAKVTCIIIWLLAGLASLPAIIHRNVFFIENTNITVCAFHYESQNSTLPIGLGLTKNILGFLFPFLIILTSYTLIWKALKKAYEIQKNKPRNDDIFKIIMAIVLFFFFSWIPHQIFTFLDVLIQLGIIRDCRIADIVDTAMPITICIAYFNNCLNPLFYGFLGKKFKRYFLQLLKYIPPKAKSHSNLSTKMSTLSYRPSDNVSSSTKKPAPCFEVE

[13] = molecular target: T3, Kappa-type opioid receptor (Homo sapiens, UniProt P41145); assay type: functional
T3 sequence (P41145 whole entry): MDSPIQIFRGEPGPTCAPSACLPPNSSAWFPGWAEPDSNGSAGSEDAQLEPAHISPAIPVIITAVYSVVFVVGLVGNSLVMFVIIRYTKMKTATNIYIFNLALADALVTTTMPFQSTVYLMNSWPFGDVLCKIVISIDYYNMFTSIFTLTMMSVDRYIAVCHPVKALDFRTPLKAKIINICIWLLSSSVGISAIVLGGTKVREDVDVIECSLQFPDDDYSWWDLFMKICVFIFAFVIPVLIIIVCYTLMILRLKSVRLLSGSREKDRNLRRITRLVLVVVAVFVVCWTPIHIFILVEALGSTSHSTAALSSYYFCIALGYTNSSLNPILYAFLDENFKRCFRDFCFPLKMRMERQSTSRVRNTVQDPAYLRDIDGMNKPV

[14] = molecular target: T4, Delta-type opioid receptor (Homo sapiens, UniProt P41143); test: HTS Image-Based Screen for Agonists of the DOR Receptor. [Related pubchem assays (depositor defined):AID1777, AID1786, AID2133]; assay type: functional
T4 sequence (P41143 whole entry): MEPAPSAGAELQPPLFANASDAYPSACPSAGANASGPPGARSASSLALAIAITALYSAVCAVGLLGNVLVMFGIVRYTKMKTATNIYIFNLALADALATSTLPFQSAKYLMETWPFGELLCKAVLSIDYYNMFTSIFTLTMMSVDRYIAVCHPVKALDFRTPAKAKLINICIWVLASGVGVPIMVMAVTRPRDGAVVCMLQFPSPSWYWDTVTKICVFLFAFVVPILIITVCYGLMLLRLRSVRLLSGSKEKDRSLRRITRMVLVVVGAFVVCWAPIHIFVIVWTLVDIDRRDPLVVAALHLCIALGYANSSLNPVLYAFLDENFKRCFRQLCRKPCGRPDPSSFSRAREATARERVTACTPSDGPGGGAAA

Mu-type opioid receptor = Mu-type opioid receptor (Homo sapiens, UniProt P35372); test: HTS Image-Based Screen for Agonists of the MOR Receptor. [Related pubchem assays (depositor defined):AID1777, AID1785, AID1786, AID2133]; assay type: functional;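 note: imaging of beta-arrestin GFP recruitment into spots after receptor activation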
Sequence of Mu-type opioid receptor (P35372 whole entry): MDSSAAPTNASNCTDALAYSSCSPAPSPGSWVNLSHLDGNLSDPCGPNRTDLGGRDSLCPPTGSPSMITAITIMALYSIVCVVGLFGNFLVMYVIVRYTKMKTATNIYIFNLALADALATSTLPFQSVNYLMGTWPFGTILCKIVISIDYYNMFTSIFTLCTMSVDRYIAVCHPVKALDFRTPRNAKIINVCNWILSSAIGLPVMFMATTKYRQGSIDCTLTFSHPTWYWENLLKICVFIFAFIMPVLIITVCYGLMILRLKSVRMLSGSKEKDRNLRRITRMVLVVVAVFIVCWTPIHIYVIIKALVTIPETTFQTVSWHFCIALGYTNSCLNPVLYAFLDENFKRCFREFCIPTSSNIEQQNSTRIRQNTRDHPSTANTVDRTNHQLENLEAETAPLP

Beta-galactosidase [15] = molecular target: T2, Beta-galactosidase; test: PubChem AID 485352; assay type: functional
[16] = molecular target: T3, Kappa-type opioid receptor; assay type: functional; remark: listed apart in the source
[17] = molecular target: T4, Delta-type opioid receptor; test: HTS Image-Based Screen for Antagonists of the DOR Receptor. [Related pubchem assays (depositor defined):AID1777, AID1785, AID1786, AID2133]; assay type: functional
[18] = cytotoxicity toward NIH3T3 fibroblasts, dose response, counter-screen, cell-based, ATP luminescence, mouse fibroblasts (AID 2010); assay type: functional;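 note: cells exposed to compound for about 90 hours before reading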
[19] = THP-1 cell cytotoxicity, dose response, cytotoxicity control for non-replicating M. tuberculosis project (AID 489025); assay type: functional
BJ [20] = test: cytotoxicity toward BJ-TERT-LT-ST fibroblasts, dose response, cell-based, RAS-independent, luminescence (AID 1935); assay type: functional; details: Homo sapiens;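 note: BJ fibroblasts immortalized with TERT plus LT and ST oncogenes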
[21] = NIH-3T3 fibroblast cytotoxicity, dose response, cytotoxicity control, cell-based, fluorescence, Alamar Blue, secondary assay (AID 2327); assay type: functional;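 note: NIH-3T3 mouse fibroblasts cultured with fluconazole at 8 µg/mL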
[22] = C. albicans growth with fluconazole, confirmation, fluorescence, retest (AID 2467); assay type: functional, cell-based
CAAX prenyl protease 1 = CAAX prenyl protease 1 (Saccharomyces cerevisiae S288c, UniProt P47154); test: Ste24 protease inhibitors, dose response, biochemical, S. cerevisiae, plate reader, cherry-pick (AID 488815)
Sequence of CAAX prenyl protease 1 (P47154 whole entry): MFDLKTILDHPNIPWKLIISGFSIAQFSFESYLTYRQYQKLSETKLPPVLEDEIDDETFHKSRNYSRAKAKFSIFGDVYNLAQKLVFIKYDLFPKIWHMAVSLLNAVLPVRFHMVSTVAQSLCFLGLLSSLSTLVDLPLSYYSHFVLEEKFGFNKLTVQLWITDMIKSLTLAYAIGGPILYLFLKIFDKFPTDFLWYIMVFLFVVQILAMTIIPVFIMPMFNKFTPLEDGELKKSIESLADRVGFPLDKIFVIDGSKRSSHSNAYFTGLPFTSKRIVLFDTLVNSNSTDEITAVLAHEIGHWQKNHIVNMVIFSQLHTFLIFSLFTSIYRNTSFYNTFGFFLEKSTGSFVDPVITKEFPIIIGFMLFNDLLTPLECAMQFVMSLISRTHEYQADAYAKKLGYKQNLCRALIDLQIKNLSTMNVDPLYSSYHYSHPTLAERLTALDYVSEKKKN

Trypsin = Trypsin (Sus scrofa, UniProt P00761); test: porcine trypsin inhibitors, dose response, selectivity assay for Rce1 protease inhibitor project, biochemical, quenched peptide fluorescence, cherry-pick (AID 488789)
Sequence of Trypsin (P00761 whole entry): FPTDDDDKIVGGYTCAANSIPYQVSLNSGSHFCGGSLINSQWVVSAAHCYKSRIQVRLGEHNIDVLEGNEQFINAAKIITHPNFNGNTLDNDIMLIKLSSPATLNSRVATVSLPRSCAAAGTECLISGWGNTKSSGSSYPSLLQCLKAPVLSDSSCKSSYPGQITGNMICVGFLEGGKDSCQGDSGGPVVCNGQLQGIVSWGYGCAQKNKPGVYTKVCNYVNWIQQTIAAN

[23] = cytotoxicity toward DRD oncogenic fibroblasts, dose response, cell-based, non-viral oncogenic, luminescence (AID 1934); assay type: functional; details: Homo sapiens
BJ [24] = test: cytotoxicity toward BJ-TERT fibroblasts, dose response, cell-based, RAS-independent, luminescence (AID 1933); assay type: functional; details: Homo sapiens
[25] = cytotoxicity in HEK-293T cells, dose response, cytotoxicity control for TCR NF-kB inhibitor project, luminescence, T-cell screen hits (AID 489026); assay type: functional, cell-based;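 note: cells exposed to compound about 14 hours before the viability readout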
CAAX prenyl protease 2 = CAAX prenyl protease 2 (Homo sapiens, UniProt Q9Y256); test: human Rce1 protease inhibitors, dose response, biochemical, yeast membranes, quenched-peptide fluorescence, cherry-pick (AID 588849)
INS1 = test: beta cell apoptosis inhibitors, cytokine rescue, dose response, luminescence, retest (AID 449756); assay type: functional, cell-based; details: Rattus norvegicus;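 note: cell death triggered by IL-1 beta plus TNF-alpha plus IFN-gamma mixture; protective hits raise ATP signal compared with cytokine alone wells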
BJ [26] = test: cells; assay type: functional, cell-based; details: Homo sapiens

N#Cc1ccc(-c2ccccc2)nc1SCC(=O)c1cc2ccccc2oc1=O
inactive: EC50 [3] > 99 µM | EC50 [4] > 99 µM
16.4 µM (not active): EC50 [1]
15.5 µM (not active): EC50 [2]
13.7 µM (not active): EC50 [6]
active: EC50 [5] 0.862 µM | EC50 (Streptococcus) 2.22 µM

CC(C)COC(=O)OCN1C(=O)CN(CCN2CC(=O)N(COC(=O)OCC(C)C)C(=O)C2)CC1=O [SOBUZOXANE]
inconclusive: AC50 [7] 35.5 µM | AC50 (Cytochrome P450 2C9) 39.8 µM

Cc1[nH]c2ccccc2c1/C=C1\SC(=N)N(c2nccs2)C1=O
inactive: EC50 (Beta-galactosidase [8]) > 31.5 µM | EC50 [14] > 32 µM | EC50 (Mu-type opioid receptor) > 32 µM | EC50 (Beta-galactosidase [15]) > 40 µM | IC50 [17] 23.4 µM
18.1 µM: IC50 [13]
active: CC50 [9] 8.83 µM | EC50 [10] 1.17 µM | CC50 [11] 5.16 µM | IC50 (cells) < 0.1 µM | IC50 [12] 14.8 µM | IC50 [16] 6.76 µM | EC50 [18] 5.8 µM | EC50 [5] 0.198 µM | CC50 [19] 10.1 µM | EC50 (Streptococcus) 1.08 µM

Cc1ccc(-c2cc(-c3ccc(C)cc3)[n+](-c3ccccc3)c(-c3ccc(C)cc3)c2)cc1.[O-][Cl+3]([O-])([O-])[O-]
inconclusive: EC50 (BJ [20]) 1.33 µM | EC50 [21] 18.4 µM
inactive: IC50 [25] 20.3 µM
active: EC50 [22] 0.178 µM | AC50 (CAAX prenyl protease 1) 13.7 µM | AC50 (Trypsin) 23.8 µM | EC50 [23] 1.05 µM | EC50 (BJ [24]) 0.689 µM | AC50 (CAAX prenyl protease 2) 20.7 µM | AC50 (INS1) 0.382 µM | EC50 (BJ [26]) 2.12 µM
